Results: patent publication US10213429B2, “Imidazo-pyrazinyl derivatives useful as soluble guanylate cyclase activators” (Merck Sharp & Dohme Corp., priority 2015, dated 2019)

Target: T1, sGC α1/β1 heterodimer (Homo sapiens, UniProt Q02108+Q02153)
T1 construct: expressed in transfected cells; host or cells: CHO-K1 (clone #7, CHO-K1/sGC)
T1 sequence (Q02108 1-690): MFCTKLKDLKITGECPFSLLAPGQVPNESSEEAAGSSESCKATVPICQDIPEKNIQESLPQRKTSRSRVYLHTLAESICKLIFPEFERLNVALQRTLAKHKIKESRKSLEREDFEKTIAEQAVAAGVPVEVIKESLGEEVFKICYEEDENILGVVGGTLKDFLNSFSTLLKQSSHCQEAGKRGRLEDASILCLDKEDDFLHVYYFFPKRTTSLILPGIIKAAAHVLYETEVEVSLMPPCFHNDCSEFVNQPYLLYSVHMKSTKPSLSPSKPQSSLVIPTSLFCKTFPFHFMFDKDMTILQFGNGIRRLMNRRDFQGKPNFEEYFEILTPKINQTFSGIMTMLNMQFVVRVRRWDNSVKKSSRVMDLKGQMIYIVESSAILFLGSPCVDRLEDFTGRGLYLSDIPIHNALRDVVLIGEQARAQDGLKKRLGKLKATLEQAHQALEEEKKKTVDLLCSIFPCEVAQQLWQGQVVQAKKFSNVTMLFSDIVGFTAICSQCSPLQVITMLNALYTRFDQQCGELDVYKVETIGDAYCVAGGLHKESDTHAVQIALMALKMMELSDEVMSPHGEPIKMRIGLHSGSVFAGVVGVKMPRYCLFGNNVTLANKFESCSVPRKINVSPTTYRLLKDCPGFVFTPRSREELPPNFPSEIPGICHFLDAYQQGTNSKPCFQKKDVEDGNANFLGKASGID
T1 sequence (Q02153 1-619): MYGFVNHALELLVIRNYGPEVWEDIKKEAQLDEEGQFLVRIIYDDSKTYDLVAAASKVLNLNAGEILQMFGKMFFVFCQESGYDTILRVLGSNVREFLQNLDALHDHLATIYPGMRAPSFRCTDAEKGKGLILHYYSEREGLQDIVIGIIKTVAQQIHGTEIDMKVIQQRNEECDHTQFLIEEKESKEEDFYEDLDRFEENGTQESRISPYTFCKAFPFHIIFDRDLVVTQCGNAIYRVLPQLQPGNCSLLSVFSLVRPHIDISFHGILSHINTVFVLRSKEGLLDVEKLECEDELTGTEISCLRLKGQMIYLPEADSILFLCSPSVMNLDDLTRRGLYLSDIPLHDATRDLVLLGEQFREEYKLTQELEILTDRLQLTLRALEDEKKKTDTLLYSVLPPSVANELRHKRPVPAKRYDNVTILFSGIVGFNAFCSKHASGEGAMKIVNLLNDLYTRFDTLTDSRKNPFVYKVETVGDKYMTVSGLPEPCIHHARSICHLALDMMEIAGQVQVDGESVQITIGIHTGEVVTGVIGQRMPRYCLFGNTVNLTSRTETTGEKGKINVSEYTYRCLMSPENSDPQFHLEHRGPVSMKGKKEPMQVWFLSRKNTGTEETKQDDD
Assay: Cell-Based sGC Functional Assay (CASA Assay), cGMP by HTRF in CHO-K1/sGC cells
Conditions: for EC50: cGMP production, 1 hr at 37° C., 4P fit, presence or absence of 1 μM DETA-NO not given, read-out: IP (nM) (inflection point); for % Act.: percent activation relative to maximum cGMP production of Compound A (= 100%); for Emax: CHO-K1, percent activation relative to maximum cGMP production of Compound A (= 100%), read-out: % Act.
Description: Biological Assay 1: Cell-Based sGC Functional Assay (CASA Assay)
sGC is a heme-containing enzyme that converts GTP to secondary messenger cGMP. Increases in cGMP levels affect several physiological processes including vasorelaxation through multiple downstream pathways. […] Heme-dependent activators (HDAs) preferentially activate sGC containing a ferrous heme group. To determine the effect of sGC activators on enzyme activity, the CASA assay was developed to monitor the generation of cGMP in a cell line that stably expresses the heterodimeric sGC protein.
A CHO-K1 cell line stably expressing the sGC α1/β1 heterodimer was generated using a standard transfection protocol. CHO-K1 cells were transfected with plasmids pIREShyghsGCα1 and pIRESneo-hsGCβ1 simultaneously using FUGENE reagent. Clones that stably express both subunits were selected with hygromycin and neomycin for ˜2 weeks. Clone #7 was chosen for the assay and was designated CHO-K1/sGC. CHO-K1/sGC cells were maintained in F-K12 medium containing 10% heat-inactivated Fetal Bovine Serum (FBS), 100 μg/mL penicillin/streptomycin, 0.5 mg/mL hygromycin and 0.25 mg/mL G418. The cells were then cryopreserved in LN2. On the day of the assay, cells were thawed and resuspended in EBSS Assay Buffer (Sigma, E3024) supplemented with 5 mM MgCl2, 10 mM HEPES (4-(2-hydroxyethyl)piperazine-1-ethanesulfonic acid) and 0.05% BSA (bovine serum albumin) (EAB) and cell density was then adjusted to 4×10^5/mL with EAB. IBMX (3-isobutyl-1-methylxanthin, 0.5 mM) was added to inhibit degradation of cGMP. Compounds were diluted from DMSO stock solutions and added to the assay at a final DMSO concentration of 2.5%. Cells were incubated with compounds in the presence and absence of 1 μM of Diethylenetriamine/nitric oxide adduct (DETA-NO; Sigma, 17018) for 1 hr at 37° C. At the end of the incubation period, the reaction was terminated and the cells were lysed with the detection reagents from Cisbio Kits. The level of intracellular cGMP was determined using an HTRF-based assay kit (CisBio, 62GM2PEC), which detects the displacement of a fluorescence labeled cGMP from its specific antibody. The cGMP produced by test compounds was directly compared to the maximum cGMP production (this value was set to equal 100% activation.) of the published sGC-HDA Compound A:
[drawing 175] (Example 1 in WO 2010/065275, published Jun. 10, 2010). The test compounds' activities were then expressed as a percentage of Compound A, the standard in every experiment. This percent activation was calculated either in the presence or absence of DETA-NO which was then plotted. IP and maximum fold induction was derived using ADA analysis software for 4P fit.
The compounds in the Examples of the instant invention had inflection points (IP) less than or equal to 10 μM and most less than or equal to about 1 μM.

CC1(C(=O)NC2CC2)C(=O)Nc2nc(-c3cn4ccnc4c(Cc4ccc(F)cc4)n3)ncc21 (single isomer, unassigned) [Example 67B, N-Cyclopropyl-2-(8-(4-fluorobenzyl)imidazo[1,2-a]pyrazin-6-yl)-5-methyl-6-oxo-6,7-dihydro-5H-pyrrolo[2,3-d]pyrimidine-5-carboxamide]
EC50: 936 nM | % Act.: 149%

CC1(c2ccc(F)cc2)C(=O)Nc2nc(-c3cn4ccnc4c(CCC(F)(F)C(F)(F)F)n3)nc(C#N)c21 (centres unmarked) [Example 85A, 5-(4-Fluorophenyl)-5-methyl-6-oxo-2-(8-(3,3,4,4,4-pentafluorobutyl)imidazo[1,2-a]pyrazin-6-yl)-6,7-dihydro-5H-pyrrolo[2,3-d]pyrimidine-4-carbonitrile]
Emax: 97% | EC50: 257 nM

O=C1Nc2nc(-c3cn4ccnc4c(CCCC(F)(F)F)n3)nc(O)c2C1(c1ccc(F)c(F)c1)C1CC1 (centres unmarked) [Example 20A, 5-cyclopropyl-5-(3,4-difluorophenyl)-4-hydroxy-2-(8-(4,4,4-trifluorobutyl)imidazo[1,2-a]pyrazin-6-yl)-5H-pyrrolo[2,3-d]pyrimidin-6(7H)-one]
Emax: 139% | EC50: 462 nM

CC1(c2ccc(Cl)cc2)C(=O)Nc2nc(-c3cn4ccnc4cn3)nc(-c3ccccc3)c21 (centres unmarked) [Example 84A, 5-(4-Chlorophenyl)-2-(imidazo[1,2-a]pyrazin-6-yl)-5-methyl-4-phenyl-5H-pyrrolo[2,3-d]pyrimidin-6(7H)-one]
Emax: 127% | EC50: 105 nM

CC1(c2ccc(F)cc2)C(=O)Nc2nc(-c3cn4ccnc4c(CC4CCC4)n3)ncc21 (centres unmarked) [Example 63A, 2-(8-(cyclobutylmethyl)imidazo[1,2-a]pyrazin-6-yl)-5-(4-fluorophenyl)-5-methyl-5H-pyrrolo[2,3-d]pyrimidin-6(7H)-one]
Emax: 107% | EC50: 10 nM

O=C1Nc2nc(-c3cn4ccnc4c(CCC(F)(F)C(F)(F)F)n3)ncc2C1(c1ccc(F)cn1)C1CC1 (centres unmarked) [Example 53A, 5-cyclopropyl-5-(5-fluoropyridin-2-yl)-2-(8-(3,3,4,4,4-pentafluorobutyl)imidazo[1,2-a]pyrazin-6-yl)-5H-pyrrolo[2,3-d]pyrimidin-6(7H)-one]
Emax: 125% | EC50: 220 nM

CC1(C(=O)NC2CC2)C(=O)Nc2nc(-c3cn4ccnc4c(Cc4ccccc4F)n3)ncc21 (single isomer, unassigned) [Example 69B, N-cyclopropyl-2-(8-(2-fluorobenzyl)imidazo[1,2-a]pyrazin-6-yl)-5-methyl-6-oxo-6,7-dihydro-5H-pyrrolo[2,3-d]pyrimidine-5-carboxamide]
EC50: 226 nM | % Act.: 118%

O=C1Nc2nc(-c3cn4ccnc4c(CCC(F)(F)C(F)(F)F)n3)ncc2C1(c1ccc(F)cc1)C1CC1 (centres unmarked) [Example 11B, 5-cyclopropyl-5-(4-fluorophenyl)-2-(8-(3,3,4,4,4-pentafluorobutyl)imidazo[1,2-a]pyrazin-6-yl)-5H-pyrrolo[2,3-d]pyrimidin-6(7H)-one]
Emax: 88% | EC50: 66 nM

CC1(c2ccc(F)cc2)C(=O)Nc2nc(-c3cn4ccnc4c(Cc4ccc(F)cc4)n3)ncc21 (centres unmarked) [Example 80A, 2-(8-(4-fluorobenzyl)imidazo[1,2-a]pyrazin-6-yl)-5-(4-fluorophenyl)-5-methyl-5H-pyrrolo[2,3-d]pyrimidin-6(7H)-one]
Emax: 111% | EC50: 122 nM

O=C1Nc2nc(-c3cn4ccnc4c(CCCC(F)(F)F)n3)nc(O)c2C1(c1ccc(Cl)cn1)C1CC1 (centres unmarked) [Example 10A, 5-(5-chloropyridin-2-yl)-5-cyclopropyl-4-hydroxy-2-(8-(4,4,4-trifluorobutyl)imidazo[1,2-a]pyrazin-6-yl)-5H-pyrrolo[2,3-d]pyrimidin-6(7H)-one]
Emax: 126% | EC50: 658 nM

CC1(c2ccc(Cl)cc2)C(=O)Nc2nc(-c3cn4ccnc4c(CCC(F)(F)F)n3)nc(C3CC3)c21 (centres unmarked) [Example 74A, 5-(4-chlorophenyl)-4-cyclopropyl-5-methyl-2-(8-(3,3,3-trifluoropropyl)imidazo[1,2-a]pyrazin-6-yl)-5H-pyrrolo[2,3-d]pyrimidin-6(7H)-one]
Emax: 165% | EC50: 124 nM

CC1(c2ccc(F)cc2)C(=O)Nc2nc(-c3cn4ccnc4c(CCC(F)(F)C(F)(F)F)n3)nc(C3CC3)c21 (centres unmarked) [Example 75A, 4-cyclopropyl-5-(4-fluorophenyl)-5-methyl-2-(8-(3,3,4,4,4-pentafluorobutyl)imidazo [1,2-a]pyrazin-6-yl)-5H-pyrrolo[2,3-d]pyrimidin-6(7H)-one]
Emax: 166% | EC50: 72 nM

O=C1Nc2nc(-c3cn4ccnc4c(CCCC(F)(F)F)n3)ncc2C1(c1ccc(Cl)cc1F)C1CC1 (centres unmarked) [Example 46A, 5-(4-chloro-2-fluorophenyl)-5-cyclopropyl-2-(8-(4,4,4-trifluorobutyl)imidazo[1,2-a]pyrazin-6-yl)-5H-pyrrolo[2,3-d]pyrimidin-6(7H)-one]
Emax: 135% | EC50: 10 nM

CCCCc1nc(-c2nc(O)c3c(n2)NC(=O)C3(c2ccc(Cl)cn2)C2CC2)cn2ccnc12 (centres unmarked) [Example 25A, 2-(8-butylimidazo[1,2-a]pyrazin-6-yl)-5-(5-chloropyridin-2-yl)-5-cyclopropyl-4-hydroxy-5H-pyrrolo[2,3-d]pyrimidin-6(7H)-one]
Emax: 153% | EC50: 240 nM

CCCCc1nc(-c2ncc3c(n2)NC(=O)C3(c2ccc(OC(F)(F)F)cc2)C2CC2)cn2ccnc12 (centres unmarked) [Example 51A, 2-(8-butylimidazo[1,2-a]pyrazin-6-yl)-5-cyclopropyl-5-(4-(trifluoromethoxy)phenyl)-5H-pyrrolo[2,3-d]pyrimidin-6(7H)-one]
Emax: 98% | EC50: 56 nM

Cc1nc(-c2cn3ccnc3c(CCC(F)(F)C(F)(F)F)n2)nc2c1C(C)(c1ccc(F)cc1)C(=O)N2 (centres unmarked) [Example 77A, 5-(4-fluorophenyl)-4,5-dimethyl-2-(8-(3,3,4,4,4-pentafluorobutyl)imidazo [1,2-a]pyrazin-6-yl)-5H-pyrrolo[2,3-d]pyrimidin-6(7H)-one]
Emax: 117% | EC50: 170 nM
